The source of these data is patent publication US20260226068A1, “IMIDAZOTRIAZINE IL-17A MODULATORS AND USES THEREOF” (DICE ALPHA, INC., priority 2023, published 2026).

One assay addresses T1, IL-17A/A (Homo sapiens, UniProt Q16552).
T1 construct: purchased Genscript Z03228
T1 sequence (Q16552 24-155): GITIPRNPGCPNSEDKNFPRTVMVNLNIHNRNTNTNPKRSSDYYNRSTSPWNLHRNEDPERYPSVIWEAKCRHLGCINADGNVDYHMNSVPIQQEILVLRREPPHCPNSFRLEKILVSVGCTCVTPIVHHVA
Briefly: IL-17A/A HEK-Blue cell assay (SEAP reporter). In kind it is cell-based. As to conditions: HEK-Blue IL-17A reporter cells, IL17A/A 5 ng/mL, 20 hours, SEAP read at A630; read-out: HEK-Blue IL17AA (IC50 for IL-17A/A inhibition). As to the method: (§1) The HEK-Blue IL-17A reporter cell line (Fisher #NC 1408637) was used for cell-based IL-17A/A inhibition assays. Cells were grown and prepared for assays according to the manufacturer's instructions. This cell line consists of HEK 293 cells that were designed to expressed IL-17RA, IL-17RC, and the Act1 adapter molecule, the combination of which, when stimulated by IL-17A/A or IL17A/F activates a […] promoter and drives expression of the recombinant Secreted Alkaline Phosphatase (SEAP) gene. Media from the cells is then added to a development reagent (Quanti-Blue Substrate, Fisher #NC971 1613), and read at A630.
(§2) Compounds were dispensed in DMSO to an empty clear 384-well tissue culture plate in a titration ranging from 10 μM to 27 pM, with DMSO added to every well to a final concentration of […]. Cells were then added to the plate (45 μL/well at a concentration of 280,000 cells/mL). IL17A/A (Genscript #Z03228) or IL17A/F (R&D Systems) was added to the plate to a final concentration of 5 ng/mL and a final well volume of 50 μL. The cells, compound, and IL-17A/A or IL17A/F were then incubated for 20 hours before media was removed for SEAP analysis. The resulting inhibition curve was then analyzed using Dotmatics' integrated 4-parameter fit screening protocol to generate IC50 values.
(§3) Table 2 includes IC50 values for IL-17A/A and IL-17A/F inhibition of selected compounds; with compounds having a IC50 of A<100 nM; B 100-1000 nM; and C>1000 nM.

Another assay concerns the target T2, IL-17A/F (Homo sapiens, UniProt Q16552+Q96PD4).
T2 construct: purchased R&D Systems
T2 sequence (Q16552 24-155): T1 sequence (Q16552 24-155)
T2 sequence (Q96PD4 31-163): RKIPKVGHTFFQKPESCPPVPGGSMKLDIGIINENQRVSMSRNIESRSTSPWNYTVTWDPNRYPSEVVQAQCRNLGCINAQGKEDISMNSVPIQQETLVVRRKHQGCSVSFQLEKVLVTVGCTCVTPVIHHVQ
Description: IL-17A/F HEK-Blue cell assay (SEAP reporter). Format: cell-based. The note with it: HEK-Blue IL-17A reporter cells, IL17A/F 5 ng/mL, 20 hours, SEAP read at A630; read-out: HEK-Blue IL17AF (IC50 for IL-17A/F inhibition). The procedure: as §1, §2, §3

As to `CCn1nccc1C(=O)N[C@H](c1cn2nc(C[C@H]3C[C@@H](C(F)(F)F)CNC3=O)c(N3CCOC[C@H]3C)nc2n1)C1CCC(F)(F)CC1` [Compound 236], the IC50 on IL-17A/A is under 100 nM; at IL-17A/F, 100 to 1000 nM.
As to `CCn1nccc1C(=O)N[C@H](c1cn2nc(C[C@H]3C[C@@H](C(F)(F)F)CNC3=O)c(N3CCC(F)(F)CC3)nc2n1)C1CCC(F)(F)CC1` [Compound 192, N—((S)-(4,4-difluorocyclohexyl)(3-(4,4-difluoropiperidin-1-yl)-2-(((3R,5R)-2-oxo-5-(trifluoromethyl)piperidin-3-yl)methyl)imidazo[1,2-b][1,2,4]triazin-6-yl)methyl)-1-ethyl-1H-pyrazole-5-carboxamide], the IC50 at IL-17A/A was under 100 nM; at IL-17A/F, 100 to 1000 nM.
The matching figures for `CCn1nccc1C(=O)N[C@H](c1cn2nc(C[C@H]3C[C@@H](C(F)(F)F)CNC3=O)c(CN3CCN(CC(F)(F)F)C(=O)C3)nc2n1)C1CCC(F)(F)CC1` [Compound 352, N—((S)-(4,4-difluorocyclohexyl)(3-((3-oxo-4-(2,2,2-trifluoroethyl)piperazin-1-yl)methyl)-2-(((3R,5R)-2-oxo-5-(trifluoromethyl)piperidin-3-yl)methyl)imidazo[1,2-b][1,2,4]triazin-6-yl)methyl)-1-ethyl-1H-pyrazole-5-carboxamide]: 100 to 1000 nM and over 1000 nM.
The like results for `CCc1nonc1C(=O)N[C@H](c1cn2nc(C[C@H]3C[C@@H](C(F)(F)F)CNC3=O)c(C3CCOCC3)nc2n1)[C@H]1C[C@H]2C[C@H]2C1` [Compound 317, N—((S)-((1R,3r,5S)-bicyclo[3.1.0]hexan-3-yl)(2-(((3R,5R)-2-oxo-5-(trifluoromethyl)piperidin-3-yl)methyl)-3-(tetrahydro-2H-pyran-4-yl)imidazo[1,2-b][1,2,4]triazin-6-yl)methyl)-4-ethyl-1,2,5-oxadiazole-3-carboxamide] were, in that order, 100 to 1000 nM and over 1000 nM.
As for `CCn1nccc1C(=O)N[C@H](c1cn2nc(C[C@H]3C[C@@H](C(F)(F)F)CNC3=O)c(C34COC(C3)C4)nc2n1)C1CCC(F)(F)CC1` [Compound 255, N—((S)-(3-(2-oxabicyclo[2.1.1]hexan-4-yl)-2-(((3R,5R)-2-oxo-5-(trifluoromethyl)piperidin-3-yl)methyl)imidazo[1,2-b][1,2,4]triazin-6-yl)(4,4-difluorocyclohexyl)methyl)-1-ethyl-1H-pyrazole-5-carboxamide], the IC50 is under 100 nM on IL-17A/A and 100 to 1000 nM at IL-17A/F.
With `CC(C)n1nccc1C(=O)N[C@H](c1cn2nc(CC3C[C@@H](C(F)(F)F)CNC3=O)c(N3CC4CC(C3)O4)nc2n1)[C@H]1CCCC(F)(F)C1` (single isomer, unassigned) [Compound 130], the IC50 at IL-17A/A was under 100 nM; at IL-17A/F, over 1000 nM.
The matching figures for `CCn1nccc1C(=O)N[C@H](c1cn2nc(CC3C[C@@H](C(F)(F)F)CNC3=O)c(N3CCOCC3)nc2n1)[C@@H]1CCCC(F)(F)C1` (single isomer, unassigned) [Compound 94]: under 100 nM and 100 to 1000 nM.
The like results for `CC(C)c1nonc1C(=O)N[C@H](c1cn2nc(C[C@H]3C[C@@H](C(F)(F)F)CNC3=O)cnc2n1)C1CCC(F)(F)CC1` [Compound 37] were, in that order, under 100 nM and over 1000 nM.
The like results for `Cn1ncnc1C(=O)N[C@H](c1cn2nc(C[C@H]3C[C@@H](C(F)(F)F)CNC3=O)c(C3CCOCC3)nc2n1)C1CCC(F)(F)CC1` [Compound 228] were, in that order, under 100 nM and over 1000 nM.
`O=C(N[C@H](c1cn2nc(C[C@H]3C[C@@H](C(F)(F)F)CNC3=O)c(C3CCCOC3)nc2n1)[C@H]1CCCC(F)(F)C1)c1nonc1C1CC1` (single isomer, unassigned) [Compound 126]: the IC50 at IL-17A/A was under 100 nM; at IL-17A/F, 100 to 1000 nM.
Consider `CCn1nccc1C(=O)N[C@H](c1cn2nc(C[C@H]3C[C@@H](C(F)(F)F)CNC3=O)c(OC(C)C)nc2n1)C1CCC(F)(F)CC1` [Compound 417, N—((S)-(4,4-difluorocyclohexyl)(3-isopropoxy-2-(((3R,5R)-2-oxo-5-(trifluoromethyl)piperidin-3-yl)methyl)imidazo[1,2-b][1,2,4]triazin-6-yl)methyl)-1-ethyl-1H-pyrazole-5-carboxamide], for which the IC50 at IL-17A/A was under 100 nM; at IL-17A/F, over 1000 nM.
The like results for `CCn1nccc1C(=O)N[C@H](c1cn2nc(C[C@@H]3C[C@@H](C)CNC3=O)c(C(C)C)nc2n1)C1CCC(F)(F)CC1` [Compound 390] were, in that order, under 100 nM and 100 to 1000 nM.
The like results for `CCn1ncnc1C(=O)N[C@H](c1cn2nc(C[C@H]3C[C@@H](C(F)(F)F)CNC3=O)c(C3CCOCC3)nc2n1)C(C1CC1)C1CC1` [Compound 385, N—((S)-2,2-dicyclopropyl-1-(2-(((3R,5R)-2-oxo-5-(trifluoromethyl)piperidin-3-yl)methyl)-3-(tetrahydro-2H-pyran-4-yl)imidazo[1,2-b][1,2,4]triazin-6-yl)ethyl)-1-ethyl-1H-1,2,4-triazole-5-carboxamide] were, in that order, under 100 nM and over 1000 nM.
The matching figures for `O=C(N[C@H](c1cn2nc(C[C@H]3C[C@@H](C(F)(F)F)CNC3=O)c(C3CCOCC3)nc2n1)C1CCC(F)(F)CC1)c1nonc1C1CC1` [Compound 136, 4-cyclopropyl-N-((1S)-(4,4-difluorocyclohexyl)(2-(((3R,5R)-2-oxo-5-(trifluoromethyl)piperidin-3-yl)methyl)-3-(tetrahydro-2H-pyran-4-yl)imidazo[1,2-b][1,2,4]triazin-6-yl)methyl)-1,2,5-oxadiazole-3-carboxamide]: under 100 nM and over 1000 nM.
As for `CCn1nccc1C(=O)N[C@H](c1cn2nc(C[C@H]3C[C@@H](C(F)(F)F)CNC3=O)c(N3CCN4CCOC[C@@H]4C3)nc2n1)C1CCC(F)(F)CC1` [Compound 366, N—((S)-(4,4-difluorocyclohexyl)(3-((S)-hexahydropyrazino[2,1-c][1,4]oxazin-8(1H)-yl)-2-(((3R,5R)-2-oxo-5-(trifluoromethyl)piperidin-3-yl)methyl)imidazo[1,2-b][1,2,4]triazin-6-yl)methyl)-1-ethyl-1H-pyrazole-5-carboxamide], the IC50 on IL-17A/A and on IL-17A/F was under 100 nM throughout.
With `CC(C)c1nonc1C(=O)N[C@H](c1cn2nc(CC3C[C@@H](C(F)(F)F)CNC3=O)cnc2n1)C1CCC(F)(F)CC1` (stereo partly drawn) [Compound 12], the figures for the IC50 on IL-17A/A and at IL-17A/F were under 100 nM and over 1000 nM, respectively.
The matching figures for `O=C(N[C@H](c1cn2nc(C[C@H]3C[C@@H](C(F)(F)F)CNC3=O)cnc2n1)C1CCC(F)(F)CC1)c1nonc1[C@H]1CC1(F)F` (single isomer, unassigned) [Compound 76]: 100 to 1000 nM and over 1000 nM.
The like results for `Cc1nonc1C(=O)N[C@H](c1cn2nc(C[C@H]3C[C@@H](C(F)(F)F)CNC3=O)c(CN3CCOCC3)nc2n1)C1CCC(F)(F)CC1` [Compound 407] were, in that order, 100 to 1000 nM and over 1000 nM.
Turning to `CCn1nccc1C(=O)N[C@H](c1cn2nc(C[C@H]3C[C@H](C(F)(F)F)CNC3=O)c(C3CCOCC3)nc2n1)[C@H]1CC[C@H](C)CC1` [Compound 155, 1-ethyl-N-((1S)-((1r,4S)-4-methylcyclohexyl)(2-(((3R,5S)-2-oxo-5-(trifluoromethyl)piperidin-3-yl)methyl)-3-(tetrahydro-2H-pyran-4-yl)imidazo[1,2-b][1,2,4]triazin-6-yl)methyl)-1H-pyrazole-5-carboxamide], the IC50 at IL-17A/A is under 100 nM; on IL-17A/F, 100 to 1000 nM.
The like results for `O=C(N[C@H](c1cn2nc(C[C@H]3C[C@@H](C(F)(F)F)CNC3=O)c(C3CCOCC3)nc2n1)C1CCC(F)(F)CC1)c1ccnn1CCF` [Compound 188, N-((1S)-(4,4-difluorocyclohexyl)(2-(((3R,5R)-2-oxo-5-(trifluoromethyl)piperidin-3-yl)methyl)-3-(tetrahydro-2H-pyran-4-yl)imidazo[1,2-b][1,2,4]triazin-6-yl)methyl)-1-(2-fluoroethyl)-1H-pyrazole-5-carboxamide] were, in that order, under 100 nM and 100 to 1000 nM.
The matching figures for `O=C(N[C@H](c1cn2nc(C[C@H]3C[C@@H](C(F)(F)F)CNC3=O)c(C3CCOC3)nc2n1)C1CCC(F)(F)CC1)c1nonc1C1CC1` (single isomer, unassigned) [Compound 135]: under 100 nM and over 1000 nM.
